Several values for one entry are separate records, joined by “and”; a condition that tells them apart may be missing. Equal values may be shown once.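 48-hour exposure; five concentrations; linearly interpolated endpoints. Abbreviation: GI50, concentration required for 50% inhibition of growth. TGI: concentration producing complete growth inhibition.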
What was measured:
Test in all cases: NCI anticancer screen, dose series, 48 h
UACC-62 melanoma = system: UACC-62 melanoma
DLD-1 colon = system: DLD-1 colon
HOP-62 NSCLC = system: HOP-62 NSCLC
HT29 colon = system: HT29 colon
RXF 393 renal = system: RXF 393 renal
HCC-2998 colon = system: HCC-2998 colon
SNB-78 CNS = system: SNB-78 CNS
SNB-19 CNS = system: SNB-19 CNS
KM12 colon = system: KM12 colon
MDA-MB-231 breast = system: MDA-MB-231 breast

Row | Compound | TGI (UACC-62 melanoma) | TGI (DLD-1 colon) | TGI (HOP-62 NSCLC) | TGI (HT29 colon) [µM] | TGI (RXF 393 renal) | TGI (HCC-2998 colon) | TGI (SNB-78 CNS) | TGI (SNB-19 CNS) | TGI (KM12 colon) | TGI (MDA-MB-231 breast) [µM] | GI50 (UACC-62 melanoma) | GI50 (DLD-1 colon) [µM] | GI50 (HOP-62 NSCLC) | GI50 (HT29 colon) | GI50 (RXF 393 renal) [µM] | GI50 (HCC-2998 colon) | GI50 (SNB-78 CNS) [µM] | GI50 (SNB-19 CNS) [µM] | GI50 (KM12 colon)
1 | Cc1c(C(=O)/C=C/c2ccc([N+](=O)[O-])cc2)[n+](=O)c2ccccc2n1[O-] | > 100 µM | > 100 µM | > 100 µM | > 100 | > 100 µM | > 100 µM | > 100 µM | > 100 µM | > 100 µM | – | – | – | – | – | – | – | – | – | –
2 | c1ccc(-c2sc(-c3ccccc3)c3c2C(c2ccccc2)c2c(-c4ccccc4)sc(-c4ccccc4)c2C3c2ccccc2)cc1 (stereo not given) | > 100 µM | > 100 µM | > 100 µM | > 100 | > 100 µM | > 100 µM | > 100 µM | > 100 µM | > 100 µM | – | – | – | – | – | – | – | – | – | –
3 | Nc1nc(N)c2c(Cl)c(CNc3ccc(Cl)c(Cl)c3)ccc2n1 | 13.7 µM | 11.8 µM | 6.59 µM | 10.3 | 7.26 µM | 2.05 µM | 25.4 µM | 17.7 µM | 3.19 µM | 7.26 | – | – | – | – | – | – | – | – | –
4 | [CH3][Ge]([CH3])([CH2]CC#N)[S]c1ccccc1 | 29.8 µM | 31.6 µM | 38.1 µM | 32.9 | 27 µM | > 100 µM | 61.8 µM | 37.3 µM | 33.5 µM | – | 13.5 µM | 14.6 | 14.6 µM | 17.8 µM | 11.8 | 0.0385 µM | 13.5 | 18 | 14.6 µM
5 | C/C(=C\CNc1ncnc2c1ncn2C1CCCCO1)COP(=O)(O)O (stereo not given) | > 100 µM | > 100 µM | > 100 µM | > 100 | > 100 µM | > 100 µM | > 100 µM | > 100 µM | > 100 µM | – | – | – | – | – | – | – | – | – | –
6 | O=C1C=C(Nc2cc(Cl)ccc2Cl)c2ccccc2C1=O | 31.4 µM | > 100 µM | 72.9 µM | > 100 | > 100 µM | > 100 µM | > 100 µM | > 100 µM | 55.7 µM | – | – | – | – | – | – | – | – | – | –
7 | CCP(C)(=O)CC | > 100 µM | > 100 µM | > 100 µM | > 100 | > 100 µM | > 100 µM | > 100 µM | > 100 µM | > 100 µM | – | – | – | – | – | – | – | – | – | –
8 | Cc1cc(NS(=O)(=O)c2ccc(NC(=O)c3cccc4c(Nc5ccc(S(=O)(=O)Nc6cc(C)on6)cc5)c5ccc(Cl)cc5nc34)cc2)no1 | > 100 µM | > 100 µM | > 100 µM | > 100 | > 100 µM | > 100 µM | > 100 µM | 81.8 µM | > 100 µM | – | – | – | – | – | – | – | – | – | –
9 | CCCCN(CCCC)CC(C(=O)Nc1ccc([N+](=O)[O-])cc1[N+](=O)[O-])/C(C)=N\NC(=O)c1ccncc1 (stereo not given) | > 100 µM | > 100 µM | > 100 µM | – | > 100 µM | > 100 µM | > 100 µM | > 100 µM | – | – | – | – | – | – | – | – | – | – | –
10 | Nc1nc2c(ncn2C2OC(CO)C(O)C2O)c(=O)o1 (stereo not given) | > 100 µM | > 100 µM | > 100 µM | > 100 | > 100 µM | > 100 µM | > 100 µM | > 100 µM | > 100 µM | – | – | – | – | – | – | – | – | – | –
11 | CC[C@@]1(O)C(=O)OCc2c1cc1n(c2=O)Cc2cc3cc(O)ccc3nc2-1 | 0.0795 µM and 0.0565 µM | 75 µM and > 87.2 µM | 0.0319 µM and 0.153 µM | 18.4 | 0.165 µM and 0.222 µM | 0.912 µM and 0.847 µM | 18.1 µM and > 100 µM | 75 µM and > 23.4 µM | 2.34 µM and 5.38 µM | > 100 | – | 0.514 | < 0.0075 µM | 0.16 µM and 0.167 µM | 0.0311 | 0.0589 µM and 0.0721 µM | 0.213 | 0.00946 | 0.127 µM and 0.142 µM
12 | CC1CN1c1c(C(=O)/C=C/c2ccc(F)cc2)c(-c2ccccc2)nn(C)c1=O (stereo not given) | 27.6 µM | 25.4 µM | 38.9 µM | 30.9 | 22 µM | 28.7 µM | 67.3 µM | 30.3 µM | 29.4 µM | – | – | – | – | – | – | – | – | – | –
13 | Cc1cc(C)c([O-])c(-[n+]2c(-c3ccccc3)cc(-c3ccccc3)cc2-c2ccccc2)c1 | 12.5 µM | 16.7 µM | 22.8 µM | 12.2 | 20.2 µM | 13.6 µM | 27.7 µM | 21 µM | 13.1 µM | – | – | – | – | – | – | – | – | – | –
14 | CC(C)(C)c1cc(Cc2ccc(S(C)(=O)=O)cc2)c(O)c(C(C)(C)C)c1 | 26 µM | 33 µM | 29.8 µM | 28.6 | 26.1 µM | 29.8 µM | 31.4 µM | 29 µM | 30.4 µM | – | – | – | – | – | – | – | – | – | –
15 | CC(=O)NNc1nc(C)c(C(=O)/C=C/c2ccc(N(C)C)cc2)s1 | > 100 µM | > 100 µM | > 100 µM | > 100 | > 100 µM | > 100 µM | > 100 µM | – | > 100 µM | – | – | – | – | – | – | – | – | – | –
16 | CCN(CC)CCN1C(=O)c2c(c3c4cccc(Cl)c4n(C4OC(CO)C(OC)C(O)C4O)c3c3[nH]c4c(Cl)cccc4c23)C1=O (stereo not given) | – | – | – | – | – | – | – | – | – | 1.12 | 0.000111 µM and < 0.0264 µM and < 0.01 µM | 0.000403 | 0.000125 µM and < 0.0318 µM and < 0.01 µM | < 0.0001 µM | < 0.0001 | 0.000104 µM and < 0.0299 µM and < 0.01 µM | 0.0475 | – | 0.000316 µM and < 0.0231 µM and < 0.01 µM

— PubChem BioAssay (NCI)
